Columns and labels:
Type in all cases: in vivo, C57BL/6 male mice
[1] = Body weight of high-fat diet obese mice, measured weekly; settings: 150 mg/kg/day oral
Procedure: (§1) 36 C57BL/6 male mice aged about 8 weeks, each having a body mass of approximately 21 g, were randomly assigned to six study groups (GA1, GA2, GB1, GB2, GB3, and GB4) of six mice each. Each animal's body weight is measured by a weight scale and recorded.
(§2) The total experimental time is 16 weeks, divided into two periods: an eight-week induction period and an eight-week treatment period.
(§3) Each study group consisted of 6 animals, and treatment details of the individual study groups are given below: • Group A1 (GA1): Normal mice, maintained on a normal diet (ND) for 8 weeks, receiving neither exercise nor L-BAIBA treatment. • Group A2 (GA2): Normal mice, maintained on a normal diet (ND) for 8 weeks, receiving only L-BAIBA treatment and no exercise. • Group B1 (GB1): Obese mice, maintained on a high-fat diet (HFD) for 8 weeks, receiving neither exercise nor L-BAIBA treatment. • Group B2 (GB2): Obese mice, maintained on HFD for 8 weeks, receiving only exercise and no L-BAIBA treatment. • Group B3 (GB3): Obese mice, maintained on HFD for 8 weeks, receiving only L-BAIBA treatment and no exercise. • Group B4 (GB4): Obese mice, maintained on HFD for 8 weeks, receiving both L-BAIBA treatment and exercise. […]
Throughout the study period, each mouse's body weight was measured weekly by a calibrated electronic digital weighing balance Sartorious BSA32025 (Sartorious AG, Göttingen, Germany). […]

[2] = Serum insulin and leptin by ELISA (insulin and leptin resistance); settings: HFD-fed obese mice, 150 mg/kg/day oral, end of study, relative to same HFD, with or without exercise, without L-BAIBA
Procedure: as §1, §2, §3
At the end of the study described in Example 1, serum levels of insulin and leptin were quantified in all treatment groups by standard ELISA methods. […]

[3] = Muscular (soleus) and hepatic glycogen content at end of study; settings: HFD-fed obese mice, 150 mg/kg/day oral, relative to same HFD, with or without exercise, without L-BAIBA
Procedure: as §1, §2
(§4) Each study group consisted of 6 animals, and treatment details of the individual study groups are given below: • Group A1 (GA1): Normal mice, maintained on a normal diet (ND) for 8 weeks, receiving neither exercise nor L-BAIBA treatment. • Group A2 (GA2): Normal mice, maintained on a normal diet (ND) for 8 weeks, receiving only L-BAIBA treatment and no exercise. • Group B1 (GB1): Obese mice, maintained on a high-fat diet (HFD) for 8 weeks, receiving neither exercise nor L-BAIBA treatment. • Group B2 (GB2): Obese mice, maintained on HFD for 8 weeks, receiving only exercise and no L-BAIBA treatment. • Group B3 (GB3): Obese mice, maintained on HFD for 8 weeks, receiving only L-BAIBA treatment and no exercise. • Group B4 (GB4): Obese mice, maintained on HFD for 8 weeks, receiving both L-BAIBA treatment and exercise.
Animals receiving L-BAIBA received, via oral administration, 150 mg/kg body weight of L-BAIBA, dissolved in 10 mL/kg body weight of ultrapure water, per day. […]

[4] = Blood metabolism-related biomarkers (TG, TCHO, LDL, VLDL) at end of study; settings: HFD-fed obese mice, 150 mg/kg/day oral, relative to same HFD, with or without exercise, without L-BAIBA
Procedure: as §1, §2, §4
Animals receiving L-BAIBA received, via oral administration, 150 mg/kg body weight of L-BAIBA, dissolved in 10 mL/kg body weight of ultrapure water, per day. Animals not receiving L-BAIBA were administered 10 mL/kg body weight of ultrapure water per day. All animals were maintained in a pathogen-free condition under a strict 12-hour alternate light/dark cycle with 12-15 cycles/hour of air exchange. All animals were provided with access to their respective feeds and water ad libitum. All animals were housed under controlled laboratory conditions of temperature and humidity at 23±2° C. and 50±10% RH.
At the end of the study described in Example 1, blood was collected from all test groups and various clinical parameters/biomarkers related to metabolism were determined: triglyceride (TG), total cholesterol (TCHO), low-density lipoprotein (LDL) and very low-density lipoprotein (VLDL).

[5] = Weekly blood glucose level (tail vein, glucometer)
Procedure: as §1
(§5) The total experimental time is 16 weeks, divided into two periods: an eight-week induction period and an eight-week treatment period. […]
(§6) Throughout the study described in Example 1, glucose levels in each mouse's blood were measured weekly (week 9-16) on the starting day of every week, before the day's exercise and L-BAIBA dosing activities. […] Blood glucose levels were monitored pre-dose and at 15, 30, 60 and 120 minutes after administration of the glucose solution. […] The area under the curve (AUC) was calculated and expressed as percentage values.

[6] = Oral glucose tolerance test (OGTT) on day 113; settings: HFD-fed obese mice, 150 mg/kg/day oral, day 113, glucose 2 g/kg oral; relative to same HFD, with or without exercise, without L-BAIBA; FIGS. 6A-7
Procedure: as §1, §5, §6

C[C@@H](CN)C(=O)O [L-BAIBA, L-β-aminoisobutyric acid]
body weight, GB3 relative to GB1 and GB2 ([1]; HFD obese mice, L-BAIBA only, no exercise (GB3), vs untreated (GB1) and exercise only (GB2), FIG. 1): reduced body weight | body weight ([1]; HFD-fed obese mice, 8-week treatment, with or without exercise, relative to same HFD without L-BAIBA): greater reduction in body weight | insulin resistance (serum insulin) ([2]; FIG. 4A): improved | leptin resistance (serum leptin) ([2]; FIG. 4B): improved leptin resistance | hepatic glycogen content ([3]; liver main lobe, FIG. 3A): higher | muscular glycogen content ([3]; soleus muscle, FIG. 3B): higher | blood triglyceride (TG) ([4]; FIG. 2A): lower levels | blood total cholesterol (TCHO) ([4]; FIG. 2B): lower levels | blood low-density lipoprotein (LDL) ([4]; FIG. 2C): lower levels | blood very low-density lipoprotein (VLDL) ([4]; FIG. 2D): lower levels | blood glucose level of obese mice over the experimental period ([5]; HFD obese mice, 150 mg/kg/day oral, weeks 9-16, compared with normal mice (GA1)): stable level, close to the level of normal mice (GA1) | blood glucose level ([5]; mice receiving 150 mg/kg/day oral, weekly weeks 9-16, GB3 and GB4 relative to GB1 and GB2, FIGS. 5A, 5B): greater reduction in blood glucose level | glucose tolerance (OGTT) [6]: better glucose tolerance
